From PubChem BioAssay (NCI)
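At the GI50, growth is halved. Definition used: TGI = concentration required for complete inhibition of growth.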

Columns and labels:
Assay in all cases: DTP human tumour cell line panel, 384-well format
EKVX NSCLC = test system: EKVX NSCLC
OVCAR-8 ovarian = test system: OVCAR-8 ovarian
M14 melanoma = test system: M14 melanoma
MDA-MB-468 breast = test system: MDA-MB-468 breast
UACC-62 melanoma = test system: UACC-62 melanoma
SW-620 colon = test system: SW-620 colon
HOP-92 NSCLC = test system: HOP-92 NSCLC
SF-295 CNS = test system: SF-295 CNS
U251 glioblastoma = test system: U251 glioblastoma
HL-60(TB) leukemia = test system: HL-60(TB) leukemia
NCI-H226 lung = test system: NCI-H226 lung
NCI-H460 NSCLC = test system: NCI-H460 NSCLC
DU-145 prostate = test system: DU-145 prostate
NCI-H522 lung = test system: NCI-H522 lung
SK-MEL-2 melanoma = test system: SK-MEL-2 melanoma
PC-3 prostate = test system: PC-3 prostate
RPMI-8226 leukemia = test system: RPMI-8226 leukemia
LOX IMVI melanoma = test system: LOX IMVI melanoma
NCI/ADR-RES ovarian = test system: NCI/ADR-RES ovarian
OVCAR-3 ovarian = test system: OVCAR-3 ovarian
K-562 leukemia = test system: K-562 leukemia
MALME-3M melanoma = test system: MALME-3M melanoma
UO-31 renal = test system: UO-31 renal
HCC-2998 colon = test system: HCC-2998 colon
SNB-19 CNS = test system: SNB-19 CNS
HCT-116 colon = test system: HCT-116 colon
MDA-MB-435 melanoma = test system: MDA-MB-435 melanoma
CAKI-1 renal = test system: CAKI-1 renal
HS 578T breast = test system: HS 578T breast
SNB-75 CNS = test system: SNB-75 CNS
SK-OV-3 ovarian = test system: SK-OV-3 ovarian
BT-549 breast = test system: BT-549 breast
SF-539 CNS = test system: SF-539 CNS
IGROV1 ovarian = test system: IGROV1 ovarian
HOP-62 NSCLC = test system: HOP-62 NSCLC
SR leukemia = test system: SR leukemia
SK-MEL-5 melanoma = test system: SK-MEL-5 melanoma
CCRF-CEM leukemia = test system: CCRF-CEM leukemia
786-0 renal = test system: 786-0 renal
KM12 colon = test system: KM12 colon
T-47D breast = test system: T-47D breast
HCT-15 colon = test system: HCT-15 colon
ACHN renal = test system: ACHN renal
SF-268 CNS = test system: SF-268 CNS
TK-10 renal = test system: TK-10 renal
RXF 393 renal = test system: RXF 393 renal
A549 NSCLC = test system: A549 NSCLC
MDA-MB-231 breast = test system: MDA-MB-231 breast
A498 renal = test system: A498 renal
MCF7 breast = test system: MCF7 breast
OVCAR-5 ovarian = test system: OVCAR-5 ovarian
NCI-H322M lung = test system: NCI-H322M lung
MOLT-4 leukemia = test system: MOLT-4 leukemia
OVCAR-4 ovarian = test system: OVCAR-4 ovarian

Cc1cnc(NC2CCOCC2)nc1-n1cnc(C(=O)N[C@H](CN)c2cc(F)cc(Cl)c2)c1 was tested, and the GI50 (EKVX NSCLC) was 0.524 µM, the TGI (EKVX NSCLC) was 14.4 µM and the GI50 (OVCAR-8 ovarian) was 4.35 µM. The TGI (OVCAR-8 ovarian) was 19.7 µM, the GI50 (M14 melanoma) was < 0.01 µM and the TGI (M14 melanoma) was 0.0408 µM. The GI50 (MDA-MB-468 breast) was 0.351 µM, the TGI (MDA-MB-468 breast) was 2.32 µM and the GI50 (UACC-62 melanoma) was < 0.01 µM. It also gave a TGI (UACC-62 melanoma) of 0.0412 µM, a GI50 (SW-620 colon) of 0.0225 µM and a TGI (SW-620 colon) of 10.5 µM. It also gave a GI50 (HOP-92 NSCLC) of 0.0238 µM, a TGI (HOP-92 NSCLC) of 0.0814 µM and a GI50 (SF-295 CNS) of 3.58 µM. It also gave a TGI (SF-295 CNS) of 16.3 µM, a GI50 (U251 glioblastoma) of 0.0756 µM and a TGI (U251 glioblastoma) of 10.5 µM. The GI50 (HL-60(TB) leukemia) was 0.0172 µM, the TGI (HL-60(TB) leukemia) was 1.24 µM and the GI50 (NCI-H226 lung) was 0.063 µM. For the same compound, the TGI (NCI-H226 lung) was 38.3 µM, the GI50 (NCI-H460 NSCLC) was 0.0985 µM and the TGI (NCI-H460 NSCLC) was 13.6 µM. It also gave a GI50 (DU-145 prostate) of 0.768 µM, a TGI (DU-145 prostate) of 25.5 µM and a GI50 (NCI-H522 lung) of 0.0524 µM. The TGI (NCI-H522 lung) was 16.9 µM, the GI50 (SK-MEL-2 melanoma) was < 0.01 µM and the TGI (SK-MEL-2 melanoma) was 0.0235 µM. For the same compound, the GI50 (PC-3 prostate) was 6.1 µM, the TGI (PC-3 prostate) was 20.2 µM and the GI50 (RPMI-8226 leukemia) was 2.55 µM. For the same compound, the TGI (RPMI-8226 leukemia) was 14.5 µM, the GI50 (LOX IMVI melanoma) was < 0.01 µM and the TGI (LOX IMVI melanoma) was 0.0258 µM. For the same compound, the GI50 (NCI/ADR-RES ovarian) was 25.7 µM, the TGI (NCI/ADR-RES ovarian) was > 100 µM and the GI50 (OVCAR-3 ovarian) was 1.05 µM. For the same compound, the TGI (OVCAR-3 ovarian) was 16.8 µM, the GI50 (K-562 leukemia) was 0.198 µM and the TGI (K-562 leukemia) was 2.52 µM. For the same compound, the GI50 (MALME-3M melanoma) was < 0.01 µM, the GI50 (UO-31 renal) was 0.577 µM and the TGI (UO-31 renal) was 10.6 µM. For the same compound, the GI50 (HCC-2998 colon) was < 0.01 µM, the TGI (HCC-2998 colon) was 0.0123 µM and the GI50 (SNB-19 CNS) was 3.68 µM. For the same compound, the TGI (SNB-19 CNS) was 21.5 µM, the GI50 (HCT-116 colon) was < 0.01 µM and the TGI (HCT-116 colon) was 0.0348 µM. The GI50 (MDA-MB-435 melanoma) was 0.0181 µM, the TGI (MDA-MB-435 melanoma) was 17.9 µM and the GI50 (CAKI-1 renal) was 0.0705 µM. For the same compound, the TGI (CAKI-1 renal) was 11.5 µM, the GI50 (HS 578T breast) was 0.509 µM and the TGI (HS 578T breast) was 21.1 µM. The GI50 (SNB-75 CNS) was 11.4 µM, the TGI (SNB-75 CNS) was 23.6 µM and the GI50 (SK-OV-3 ovarian) was 0.807 µM. For the same compound, the TGI (SK-OV-3 ovarian) was 15.4 µM, the GI50 (BT-549 breast) was 2.21 µM and the TGI (BT-549 breast) was 13 µM. For the same compound, the GI50 (SF-539 CNS) was 2.05 µM, the TGI (SF-539 CNS) was 12.4 µM and the GI50 (IGROV1 ovarian) was 0.0403 µM. The TGI (IGROV1 ovarian) was 7.92 µM, the GI50 (HOP-62 NSCLC) was 1.26 µM and the TGI (HOP-62 NSCLC) was 17.3 µM. The GI50 (SR leukemia) was 2.54 µM, the TGI (SR leukemia) was 11 µM and the GI50 (SK-MEL-5 melanoma) was 0.0173 µM. For the same compound, the TGI (SK-MEL-5 melanoma) was 4.58 µM, the GI50 (CCRF-CEM leukemia) was 1.47 µM and the TGI (CCRF-CEM leukemia) was 3.19 µM. It also gave a GI50 ([…]-0 renal) of 2.2 µM, a TGI (786-0 renal) of 16.3 µM and a GI50 (KM12 colon) of 0.0295 µM. The TGI (KM12 colon) was 17.5 µM, the GI50 (T-47D breast) was 15.6 µM and the TGI (T-47D breast) was 30.3 µM. It also gave a GI50 (HCT-15 colon) of 2.78 µM, a TGI (HCT-15 colon) of 20.8 µM and a GI50 (ACHN renal) of 1.27 µM. The TGI (ACHN renal) was 18 µM, the GI50 (SF-268 CNS) was 6.61 µM and the TGI (SF-268 CNS) was 20.4 µM. For the same compound, the GI50 (TK-10 renal) was 0.0919 µM, the TGI (TK-10 renal) was 3.7 µM and the GI50 (RXF 393 renal) was 1.59 µM. The TGI (RXF 393 renal) was 15 µM, the GI50 (A549 NSCLC) was 0.0423 µM and the TGI (A549 NSCLC) was 18.5 µM. The GI50 (MDA-MB-231 breast) was 0.0374 µM, the TGI (MDA-MB-231 breast) was 21.5 µM and the GI50 (A498 renal) was 0.405 µM. The TGI (A498 renal) was 12.1 µM, the GI50 (MCF7 breast) was 1.09 µM and the TGI (MCF7 breast) was 13.2 µM. For the same compound, the GI50 (OVCAR-5 ovarian) was < 0.01 µM, the TGI (OVCAR-5 ovarian) was 46.9 µM and the GI50 (NCI-H322M lung) was 0.0215 µM. It also gave a TGI (NCI-H322M lung) of 23.9 µM, a GI50 (MOLT-4 leukemia) of 1.26 µM and a TGI (MOLT-4 leukemia) of 2.54 µM. The GI50 (OVCAR-4 ovarian) was 21.1 µM and the TGI (OVCAR-4 ovarian) was 48.5 µM.
